What is called Kd is the equilibrium constant for the complex coming apart.

Each structure is given as a SMILES string.

This test deals with T1, jacalin (Artocarpus integer, UniProt P18670+P18671).
T1 construct: native tetrameric lectin isolated from jackfruit seeds; labelled with Red-NHS 2nd Generation (Alexa Fluor 647) for MST
Nature of the test: microscale thermophoresis with labelled jacalin; steady-state fluorescence titration also gave KD […]. It counts as binding. Background: In MST a laser heats a spot of the sample, and binding alters the fluorescence response.

T1 sequence (P18670 whole entry): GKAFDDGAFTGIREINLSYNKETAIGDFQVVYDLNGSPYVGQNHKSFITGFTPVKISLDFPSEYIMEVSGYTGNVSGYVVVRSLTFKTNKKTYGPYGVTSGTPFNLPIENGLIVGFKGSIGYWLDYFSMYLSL
T1 sequence (P18671 whole entry): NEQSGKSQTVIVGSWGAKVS

`COc1cc(/C=C/C(=O)CC(=O)/C=C/c2ccc(O)c(OC)c2)ccc1O` [curcumin] showed a dissociation constant Kd of 450 nM.
